According to US20240350578A1, “FUNCTIONAL OUTCOMES AFTER SPINAL CORD INJURY” (priority 2023, published 2024):

Tests used:
mixed neuronal culture = test: Neuronal LDH release from a mixed neuronal culture following incubation with NMDA; format: cell-based; conditions: peptide at 1 μM; mixed neuronal culture incubated with NMDA
From the text: (§1) Despite the neuroprotective effectiveness of early generation apoE-mimetic peptides based on the primary structure of the apoE receptor-binding region, several factors have limited clinical translation. Among those factors are peptide size and production cost. In order to address these barriers, we developed a library of smaller, 5-amino acid peptides by linearizing the polar face of the receptor-binding region, which preserves peptide function without maintaining any primary sequence homology with the apoE receptor-binding region itself. Overall, 13 peptides were screened using in vitro assays of neuroinflammation and neuroprotection from excitotoxicity. […] The resulting smaller, 5-amino acid peptide increases the translational and therapeutic potential by reducing production cost, improving pharmacokinetics, and increasing CNS bioavailability. A comparison of the neuroprotective activity of CN-105 with VR-53, another pentapeptide from this library, as measured by LPS-induced inflammation from TNFα is shown in FIG. 1.

mixed glial culture = test: LPS-induced TNFα release from mixed glia cells in vitro; format: cell-based
From the text: FIG. 1 is a graph showing the LPS-induced TNFα release from mixed glia cells in vitro from treatments with the CN-105 peptide and a comparison pentapeptide, VR-53.
as §1

[1] = Pharmacokinetic evaluation of radiolabeled CN-105 in uninjured male CD-1 mice; format: in vivo; conditions: single intravenous bolus 1.98 mg/kg
Description: FIG. 2, panel A is a graph showing the concentration of CN-105 in uninjured, male CD-1 mice after a single intravenous injection bolus dose of 1.98 mg/kg. FIG. 2, panel B is a graph showing the CN-105 retention in the brain and the spinal cord, calculated by dividing the concentration at 24 hours (C24) by the peak concentration (Cmax), 24 hours after a single intravenous injection bolus dose of 1.98 mg/kg. FIG. 2, panel C is a graph showing the total CN-105 exposure in the brain and the spinal cord, calculated using the area under the curve (AUC), for 48 hours after a single intravenous injection bolus dose of 1.98 mg/kg.
In collaboration with XenoBiotic Laboratories, Inc., we conducted a pharmacokinetic evaluation of radiolabled CN-105 in uninjured, male CD-1 mice. After a single intravenous bolus dose of CN-105 (1.98 mg/kg), peak concentration of CN-105 in the spinal cord occurred 30 minutes post injection (FIG. 2, panel A).
However, tissue retention of CN-105 at 24 hours (FIG. 2, panel B) and total exposure (FIG. 2, panel C) to CN-105 over 48 hours post injection was greatest in the spinal cord. Tissue retention at 24 hours post injection was quantified by dividing the CN-105 concentration at 24 hours (C24) by the peak CN-105 concentration (Cmax) and multiplying by 100.
The total exposure to CN-105 was calculated using the area under the curve (AUC) from the time of injection to 48 hours post injection (AUC0-48) and is expressed in nanogram equivalents*hour per gram. […] Increased CN-105 access to the spinal cord is consistent with greater passive permeability in the intact spinal cord (Winkler et al., 2012).

[2] = test system: moderate, contusive SCI in adult, female C57BL/6J mice; test: Moderate, contusive SCI at T9: Basso Mouse Scale and von Frey hair test; format: in vivo
Description: FIG. 3 are graphs showing the locomotor performance recovery (via Basso Mouse Scale) in adult, female C57BL/6J mice after a moderate, incomplete SCI at the 9th thoracic vertebrae. The mice were subsequently treated with either 2.0 mg/kg CN-105 or a control vehicle intravenously 30 minutes post-injury, and then intraperitoneally (IP) at 3 hours, 6 hours, and then every 24 hours post-injury for three days. FIG. 3, panel A is a graph showing the number of consistent, weight-supported hindlimb steps at 21-days post-injury; and FIG. 3, panel B is a graph showing the number of animals capable of performing coordinated locomotion at 21-days post-injury.
To determine whether CN-105 can improve sensorimotor outcomes following a moderate, incomplete SCI, we conducted experiments in adult, female C57BL/6J mice. Here, we delivered CN-105 (2.0 mg/kg) or Vehicle at 30 minutes (intravenous, IV), at 3 hours and 6 hours (intraperitoneal, IP), then every 24 hours (IP) for three days following a moderate, contusive SCI at the level of the 9th thoracic vertebrae (T9). We tracked locomotor recovery using the Basso Mouse Scale (BMS) (Basso et al., 2006) and assessed for neuropathic pain or allodynia using the von Frey hair test.

severe, contusive SCI = test: Severe, contusive SCI: GFAP staining at injury epicenter; format: in vivo, mouse; conditions: 0.05 mg/kg before and after SCI; 14 days after severe SCI
Description: FIG. 4 is a series of microscopy images showing the spinal cord sections at the injury epicenter stained for glial fibrillary acidic protein (GFAP) in a mouse after a severe SCI.
In a separate experiment, we delivered CN-105 (0.05 mg/kg) before and after SCI. To determine the effect of CN-105 treatment on neuropathology 14 days after severe SCI, we stained spinal cord sections at the injury epicenter for glial fibrillary acidic protein (GFAP; FIG. 4), which labels astrocytes, including those that form the glial scar around the injury. In this approach, spared tissue can be differentiated from the lesion core by the presence (spared tissue) or absence (lesion core) of GFAP staining (Duncan et al., 2018).

[3] = test system: spinal cord transection in female Sprague-Dawley rats; test: Spinal cord transection T9/T10: acute cystometry and body weight; format: in vivo
Description: FIG. 5, panel A is a graph showing the number of non-voiding bladder contractions during acute cystometry in urethane-anesthetized, female Sprague-Dawley rats that received spinal cord transection between the 9th and 10th thoracic vertebrae, followed by CN-105 (2 mg/kg; sci_cn105) or 0.9% saline (sci_saline) treatments at 30 minutes and 3 hours post injury by IV injection, and then every 24 hours by IP for 7 days.
FIG. 5, panel B is a graph showing the bladder capacity measured from a single-fill cystometric trial in urethane-anesthetized, female Sprague-Dawley rats that received spinal cord transection between the 9th and 10th thoracic vertebrae. Three baseline measurements were taken, and then three measurements were taken after administration of CN-105 (2 mg/kg; cn105).
We conducted terminal acute experiments in urethane-anesthetized, female Sprague-Dawley rats to quantify the chronic and acute effects of CN-105 on urodynamic function. Rats (n=6) received spinal cord transection (TX) at T9/T10 followed by CN-105 (2.0 mg/kg) or 0.9% saline treatment at 30 min and 3 hours (IV), then every 24 hours (IP) for 7 days post-injury. Collection of body weight and void volumes occurred 2-3 times daily during manual bladder expression throughout the duration of the study. For acute cystometry experiments, we placed a catheter into the bladder dome to measure pressure and an electromyography paddle on the EUS to measure muscle activity. During a single-fill cystometric trial, we infused the bladder with saline at a constant rate (54-84 ml/hr) until a distension-evoked bladder contraction voided urine or until overflow incontinence occurred. Following 3 baseline cystometric trials, we performed 3 trials after administration of CN-105.

acquired brain injury = conditions: in vivo; cited from earlier work
[4] = target: α7 nicotinic acetylcholine receptors (Homo sapiens, UniProt P36544); conditions: cited from earlier work
Sequence of α7 nicotinic acetylcholine receptors (P36544 23-502): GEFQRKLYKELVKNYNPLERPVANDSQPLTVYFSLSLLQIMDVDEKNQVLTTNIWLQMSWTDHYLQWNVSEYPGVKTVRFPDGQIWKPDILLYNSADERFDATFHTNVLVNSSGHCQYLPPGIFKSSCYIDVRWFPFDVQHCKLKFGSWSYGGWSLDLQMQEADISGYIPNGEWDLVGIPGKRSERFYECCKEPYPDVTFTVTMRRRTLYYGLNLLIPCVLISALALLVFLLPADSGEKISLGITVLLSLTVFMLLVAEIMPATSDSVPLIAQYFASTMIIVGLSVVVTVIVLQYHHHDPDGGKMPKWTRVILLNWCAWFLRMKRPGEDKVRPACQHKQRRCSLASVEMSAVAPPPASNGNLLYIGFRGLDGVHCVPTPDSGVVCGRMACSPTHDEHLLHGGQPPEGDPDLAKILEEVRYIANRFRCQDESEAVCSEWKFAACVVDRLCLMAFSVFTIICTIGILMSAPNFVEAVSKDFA

[5] = SCI rats, 2.0 mg/kg chronic treatment, cystometry

Ac-ASHLRKLRKRLL-NH2 [AL-10-1]
Neuroprotection (reduction in neuronal LDH release) (mixed neuronal culture): −6.21%

Ac-VARKL-NH2 [VL-S-1]
Neuroprotection (reduction in neuronal LDH release) (mixed neuronal culture): 24.48%

Ac-RHKKL-NH2 [RL-S-1]
Neuroprotection (reduction in neuronal LDH release) (mixed neuronal culture): −2.85%

Ac-VSKKR-NH2 [VR-54]
Neuroprotection (reduction in neuronal LDH release) (mixed neuronal culture): −15.91%

Ac-RARRL-NH2 [RL-S-2]
Neuroprotection (reduction in neuronal LDH release) (mixed neuronal culture): −5.23%

Ac-RSKRR-NH2 [RR-S-2]
Neuroprotection (reduction in neuronal LDH release) (mixed neuronal culture): 0.08%

Ac-RHKRR-NH2 [RR-S-1]
Neuroprotection (reduction in neuronal LDH release) (mixed neuronal culture): 7.5%

Ac-RSKKL-NH2 [RL-S-3]
Neuroprotection (reduction in neuronal LDH release) (mixed neuronal culture): −20.80%

Ac-VSKRR-NH2 [VR-53]
Neuroprotection (reduction in neuronal LDH release) (mixed neuronal culture): 7.03%

Ac-VSRKR-NH2 [VR-52]
Neuroprotection (reduction in neuronal LDH release) (mixed neuronal culture): 12.63%

Ac-VARRL-NH2 [VL-S-3]
Neuroprotection (reduction in neuronal LDH release) (mixed neuronal culture): 11.50%

Ac-VSRRR-NH2 [CN-105]
Neuroprotection (reduction in neuronal LDH release) (mixed neuronal culture): 19.14%
Suppression of LPS-induced inflammation (TNFα) (mixed glial culture): suppress LPS-induced inflammation
Total exposure (AUC0-48), spinal cord vs brain ([1]; 0-48 hours): spinal cord had greater total exposure to CN-105 than the brain
Tissue retention at 24 hours (C24/Cmax x 100), spinal cord vs brain ([1]; 24 hours post injection): spinal cord retained a higher percentage of CN-105 than the brain
Time of peak concentration in the spinal cord ([1]; spinal cord): 30 min
Sensory function / allodynia (von Frey hair test) ([2]; 2.0 mg/kg): trend toward improved sensory function
Animals capable of consistently taking weight-supported steps (BMS) ([2]; 2.0 mg/kg IV 30 min, IP 3 h, 6 h, then every 24 h for three days, 21 days after injury, p<0.05): significantly more animals
Animals performing coordinated locomotion (BMS) ([2]; 2.0 mg/kg, 21 days after injury, p<0.05): significantly more animals
Lesion size and tissue damage (GFAP staining) (severe, contusive SCI): appeared to reduce the lesion size and tissue damage
Post-injury weight loss ([3]; 2.0 mg/kg IV 30 min and 3 h, then IP every 24 h for 7 days): prevented post-injury weight loss
Bladder capacity (BC) [3, 5]: 11.83 ± 2.00 mL
Non-voiding contractions (NVCs) [3, 5]: 8.0±2.48
Voiding efficiency (VE) [3, 5]: 3.31±1.83%
Bladder capacity after acute dosing ([3]; acute dosing 2 mg/kg in chronically treated rats, p<0.05): may decrease bladder capacities
Neurogenic detrusor overactivity (NDO), post-hoc analysis ([3]; extended treatment, p<0.05): may decrease NDO
Brain exposure relative to previous peptides (acquired brain injury): up to five times higher than previous peptides
Histological and behavioral outcomes following acquired brain injury (acquired brain injury): improves both histological and behavioral outcomes
Binding to α7 nicotinic acetylcholine receptors [4]: binds
